# Results from patent US20090246519A1 (priority 2008, published 2009).
# Assays:
# [1] = tested on: Strains in all clusters; type: cell-based
# [2] = tested on: Cluster 2 strains 28A, 6A; type: cell-based, Bacillus sp.; conditions: highest level of tellurite tolerated by strains when grown on LB-Marine plates
# [3] = tested on: Cluster 3 strain 14B; type: cell-based, Virgibacillus halodenitrificans
# [4] = tested on: Cluster 1 strains 1A, 13B, 30B; type: cell-based, Rhodotorula mucilaginosa; conditions: highest level of tellurite tolerated by strains when grown on LB-Marine plates
molecule,measurement,setting,value
arsenate,Resistance of strains to oxyanion,[1],resistant
O=[Se](=O)(O)O [selenate],Resistance of strains to oxyanion,[1],resistant
sodium tellurite [TeO3^2−],Maximum [TeO3^2−],[2],300 µg/mL
same,Growth of strain 14B in the presence of tellurite,"[3]; 150 μg Na2TeO3 ml^−1, on plates and in liquid cultures",grows poorly
same,Maximum [TeO3^2−],"[3]; highest level of tellurite tolerated by strains when grown on LB-Marine plates, cluster 3",75 to 150 µg/mL
same,Maximum [TeO3^2−],[4],600 µg/mL
O=[Te](=O)(O)O [tellurate],Resistance of strains to oxyanion,[1],resistant
